For data set [1] the following is noted: Balb/c mice; compared to saline control.
Method: In order to detect if mice experienced any behavioral changes under treatments, open field tests and pain sensitivity behavioral tests were performed.
In data set [2] the test system is MDA-MB-231 human breast tumor with lung metastasis. The conditions noted are these: NSG mouse.
From the text: The anticancer efficacy of the nanoparticles has been evaluated in a NSG mouse model bearing MDA-MB-231 human breast tumor with lung metastasis. […] A thorough characterization of lung metastasis has been performed with a combination of IVIS imaging, H&E staining, and machine learning.

Structures are written as SMILES.

`COc1cccc2c1C(=O)c1c(O)c3c(c(O)c1C2=O)C[C@@](O)(C(=O)CO)C[C@@H]3O[C@H]1C[C@H](N)[C@H](O)[C@H](C)O1` [doxorubicin]: in data set [1], the “distance traveled in open field test” value was “significant attenuation in the distance”.
Regarding `CC(=O)O[C@H]1C(=O)[C@@]2(C)[C@H]([C@H](OC(=O)c3ccccc3)[C@]3(O)C[C@H](OC(=O)[C@H](O)[C@@H](NC(=O)c4ccccc4)c4ccccc4)C(C)=C1C3(C)C)[C@]1(OC(C)=O)CO[C@@H]1C[C@@H]2O` [paclitaxel free drug, paclitaxel], the lung metastasis entry in data set [2] (MDA-MB-231, IVIS imaging, H&E staining, machine learning) is “shows no therapeutic effect to metastasis, and even induce more metastasis”. Further, in data set [2] (MDA-MB-231 tumor), the “primary tumor inhibition efficacy” value is on record as “inhibits primary tumor”.

The values above are taken from patent US20250090489A1, “CATIONIC POLYMERIC NANOCARRIERS INHIBIT CHEMOTHERAPY-INDUCED CANCER METASTASIS AND COGNITIVE IMPAIRMENT” (The Trustees of Columbia University in the City of New York, priority 2022, published 2025).
